Tests used:
Type in all cases: in vivo
[1] = test system: histamine-induced airway contractile response; experiment: Inhibitory activity on histamine-induced airway contractile response and hypotensive activity, intravenous or inhalation administration; conditions: anesthetized guinea pig, histamine 10 μg/kg i.v.; inhalation (5 minutes, nebulizer) versus intravenous administration; FIG. 1
Experimental: (1) Inhibitory Activity on Histamine-Induced Airway Contractile Response and Hypotensive Activity of Intravenous Administration or Inhalation Administration in Guinea Pig
A guinea pig anesthetized with sodium pentobarbital (75 mg/kg, i.p.) was treated with gallamine (10 mg/kg, i.v.), and an experiment was carried out under artificial respiration. As an airway contraction inducing substance, histamine (10 μg/kg, i.v.) was used, and the airway contractile response was determined by the Konzett & Roessler method (Konzett, H., Roessler, R. Versuchsanordnung zu untersuchungen ander Bronchial-muskulatur. Arch Exp Pathol Pharmacol 1940; 195:71-74). Additionally, the blood pressure was also measured at the same time. A test substance was administered intravenously or by inhalation (the test substance or a physiological saline solution was atomized using an ultrasonic nebulizer and inhaled directly into the trachea for 5 minutes using an artificial respirator). An inhibition ratio of airway contraction (%) was calculated by taking the airway contraction induced by histamine before administration of the test substance or in a group administered with a physiological saline solution as 0% inhibition. The amount of blood pressure reduction (mmHg) was expressed as the amount of diastolic blood pressure reduction. […] From this, it was shown that the pharmaceutical composition for inhalation of the present invention has an inhibitory effect on airway contraction and its hypotensive effect is small.

[2] = test system: methacholine-induced airway contractile response; experiment: Effect of intratracheal administration on methacholine-induced airway contractile response; conditions: guinea pig, methacholine 10 μg/kg i.v.
Experimental: (2) Effect of Compound of the Present Invention by Intratracheal Administration on Methacholine-Induced Airway Contractile Response in Guinea Pig
A test substance was intratracheally administered to a guinea pig anesthetized with GOI (laughing gas:oxygen=3:1, 3% isoflurane) using a tube for intratracheal administration. After a certain period of time, the guinea pig was anesthetized with sodium pentobarbital (50 mg/kg, i.p.) and treated with gallamine (10 mg/kg, i.v.). Then, the resulting airway contractile response was determined under artificial respiration. As an airway contraction inducing substance, methacholine (10 μg/kg, i.v.) was used, and the airway contractile response was determined by the Konzett & Roessler method. A ratio of airway contraction (% of maximum) was calculated by taking the airway response obtained by closing a three-way stopcock attached to an upper part of a cannula inserted into the tracheal tube of the guinea pig as 100%.

[3] = Hypotensive effect of a sustained prodrug of EP2 agonist (blood pressure after intratracheal administration); conditions: guinea pig, blood pressure measured for 12.5 minutes after administration, FIGS. 6 and 8
Experimental: (§1) (3) Bronchodilator Effect and Hypotensive Effect of a Sustained Prodrug of EP2 Agonist
(§2) A guinea pig anesthetized with sodium pentobarbital (50 mg/kg, i.p.) was treated with gallamine (10 mg/kg, i.v.), and an experiment was carried out under artificial respiration. As an airway contraction inducing substance, methacholine (10 μg/kg, i.v.) was used, and the airway contractile response was determined by the Konzett & Roessler method. Compound B was dissolved in an equimolar amount of sodium hydroxide and diluted with a physiological saline solution. Compound F was suspended in a physiological saline solution containing 2% ethanol and 10% Tween 80 to prepare a test substance. The test substance was intratracheally administered using a tube for intratracheal administration. After the administration of the test substance, the blood pressure and the airway contractile response were measured for 12.5 minutes and 3 hours, respectively. A ratio of airway contraction (%) was calculated by taking the airway response obtained by closing a three-way stopcock attached to an upper part of a cannula inserted into the tracheal tube of the guinea pig as 100% contraction. The amount of blood pressure reduction (mmHg) was expressed based on the blood pressure before administration of the test substance.

[4] = test system: methacholine-induced airway contractile response; experiment: Bronchodilator effect of a sustained prodrug of EP2 agonist (methacholine-induced airway contraction, intratracheal); conditions: guinea pig, intratracheal administration, methacholine 10 μg/kg i.v., airway contractile response measured for 3 hours; FIGS. 7 and 9
Experimental: as §1, §2

SMILES: O=C(O)c1csc(SCCN2C(=O)CC[C@@H]2COc2cccc(C(F)(F)F)c2Cl)n1 [Compound C, 2-{[2-((2R)-2-{[2-chloro-3-(trifluoromethyl)phenoxy]methyl}-5-oxopyrrolidin-1-yl)ethyl]sulfanyl}-1,3-thiazole-4-carboxylic acid]
- dissociation between the inhibitory effect on airway contraction and the hypotensive effect [1]: became larger by inhalation administration than by intravenous administration

SMILES: O=C(O)c1csc(SCCN2C(=O)CC[C@@H]2COc2cccc(OC(F)(F)F)c2)n1 [Compound D, 2-{[2-((5R)-2-oxo-5-{[3-(trifluoromethoxy)phenoxy]methyl}pyrrolidin-1-yl)ethyl]sulfanyl}-1,3-thiazole-4-carboxylic acid]
- dissociation between the inhibitory effect on airway contraction and the hypotensive effect [1]: became larger by inhalation administration than by intravenous administration

SMILES: CCC1([C@@H](O)C/C=C/[C@H]2CCC(=O)N2CCSc2nc(C(=O)O)cs2)CCC1 [Compound A, 2-[(2-{(2R)-2-[(1E,4S)-4-(1-ethylcyclobutyl)-4-hydroxybut-1-enyl]-5-oxopyrrolidin-1-yl}ethyl)sulfanyl]-1,3-thiazole-4-carboxylic acid]
- dissociation between the inhibitory effect on airway contraction and the hypotensive effect [1]: became larger by inhalation administration than by intravenous administration

SMILES: O=C(O)c1csc(SCCN2C(=O)CC[C@@H]2COc2cc(Cl)cc(Cl)c2)n1 [Compound B, 2-[(2-{(2R)-2-[(3,5-dichlorophenoxy)methyl]-5-oxopyrrolidin-1-yl}ethyl)thio]-1,3-thiazole-4-carboxylic acid]
- time after administration at which the bronchodilator effect was lost ([2]; FIG. 2): around 3 hours
- bronchodilator effect ([2]; FIGS. 2 to 5): has a bronchodilator effect
- dissociation between the inhibitory effect on airway contraction and the hypotensive effect [1]: became larger by inhalation administration than by intravenous administration

SMILES: CCCCOC(=O)c1csc(SCCN2C(=O)CC[C@@H]2COc2cc(Cl)cc(Cl)c2)n1 [Compound E, butyl 2-[(2-{(2R)-2-[(3,5-dichlorophenoxy)methyl]-5-oxopyrrolidin-1-yl}ethyl)thio]-1,3-thiazole-4-carboxylate]
- duration of activity (bronchodilator effect), comparison ([2]; FIGS. 2 to 5): more prolonged duration of activity compared with Compound B

SMILES: CCCCCCCCCCCOC(=O)c1csc(SCCN2C(=O)CC[C@@H]2COc2cc(Cl)cc(Cl)c2)n1 [Compound F, undecyl 2-[(2-{(2R)-2-[(3,5-dichlorophenoxy)methyl]-5-oxopyrrolidin-1-yl}ethyl)sulfanyl]-1,3-thiazole-4-carboxylate]
- duration of activity (bronchodilator effect), comparison ([2]; FIGS. 2 to 5): more prolonged duration of activity compared with Compound F
- change of blood pressure (hypotensive effect) [3]: did not change the blood pressure
- duration of bronchodilator activity, comparison [4]: prolonged duration of bronchodilator activity compared with Compound B

SMILES: O=C(OCCCCCCCCCCc1ccccc1)c1csc(SCCN2C(=O)CC[C@@H]2COc2cc(Cl)cc(Cl)c2)n1 [Compound G, 10-phenyldecyl 2-[(2-{(2R)-2-[(3,5-dichlorophenoxy)methyl]-5-oxopyrrolidin-1-yl}ethyl)sulfanyl]-1,3-thiazole-4-carboxylate]
- duration of activity (bronchodilator effect), comparison ([2]; FIGS. 2 to 5): more prolonged duration of activity compared with Compound F
